According to patent US9708308B2, “Factor IXa inhibitors” (Merck Sharp & Dohme Corp., priority 2012, dated 2017):
pIC50: −log10 of the molar value.

target: Factor IXa (Homo sapiens, UniProt P00740); experiment: Determination of inhibitory activity against Factor IXa (cleavage of fluorescent peptide substrate); type: biochemical; settings: cleavage of fluorescent peptide CH3SO2-D-CHG-Gly-Arg-AFC, release of AFC; read-out: FIXa IC50
Procedure, shortened: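 Factor IXa activity followed via cleavage of CH3SO2-D-CHG-Gly-Arg-AFC, releasing AFC. Fluorescence read at excitation 405 nm, emission 510 nm.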

Sequence of Factor IXa (P00740 227-461 limits assumed): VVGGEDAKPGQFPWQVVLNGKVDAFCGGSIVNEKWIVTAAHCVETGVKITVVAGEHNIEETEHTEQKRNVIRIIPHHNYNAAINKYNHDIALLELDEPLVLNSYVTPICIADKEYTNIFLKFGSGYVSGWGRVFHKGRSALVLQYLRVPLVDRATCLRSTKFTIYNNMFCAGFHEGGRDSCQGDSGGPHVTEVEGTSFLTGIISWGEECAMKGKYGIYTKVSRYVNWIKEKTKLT
Sequence of Factor IXa (P00740 47-191 partner limits assumed): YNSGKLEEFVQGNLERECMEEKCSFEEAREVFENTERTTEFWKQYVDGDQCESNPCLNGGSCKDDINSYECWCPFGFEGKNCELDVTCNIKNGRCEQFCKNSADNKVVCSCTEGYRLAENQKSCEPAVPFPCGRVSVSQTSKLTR

Row | Compound | pIC50
1 | C[C@]1([C@@H](O)C(=O)Nc2ccc(CN)c(F)c2)OCCN(c2ccn(-c3ccncc3)n2)C1=O [Example 153, (R)—N-(4-(aminomethyl)-3-fluorophenyl)-2-hydroxy-2-((R)-2-methyl-3-oxo-4-(1-(pyridin-4-yl)-1H-pyrazol-3-yl)morpholin-2-yl)acetamide] | 7.90
2 | CC1(C)CN(c2ccn(-c3cnnc(C#N)c3)n2)C(=O)[C@@H]([C@@H](O)C(=O)Nc2ccc3c(N)noc3c2)O1 [Example 156, (R)—N-(3-Aminobenzo[d]isoxazol-6-yl)-2-((R)-4-(1-(6-cyanopyridazin-4-yl)-1H-pyrazol-3-yl)-6,6-dimethyl-3-oxomorpholin-2-yl)-2-hydroxyacetamide] | 8.77
3 | C[C@H]1CN(c2ccn(-c3ccnc(C#N)c3)n2)C(=O)[C@@H]([C@@H](O)C(=O)Nc2ccc3c(N)noc3c2)O1 [Example 164, (R)—N-(3-aminobenzo[d]isoxazol-6-yl)-2-((2R,6S)-4-(1-(2-cyanopyridin-4-yl)-1H-pyrazol-3-yl)-6-methyl-3-oxomorpholin-2-yl)-2-hydroxyacetamide] | 8.25
4 | C[C@@H]1CN(c2ccn(-c3ccnc(C#N)c3)n2)C(=O)[C@@H]([C@@H](O)C(=O)Nc2ccc3c(N)noc3c2)O1 [Example 165, (R)—N-(3-aminobenzo[d]isoxazol-6-yl)-2-((2R,6R)-4-(1-(2-cyanopyridin-4-yl)-1H-pyrazol-3-yl)-6-methyl-3-oxomorpholin-2-yl)-2-hydroxyacetamide] | 8.70
5 | COc1cc(-n2ccc(N3C[C@H](C)O[C@H]([C@@H](O)C(=O)Nc4ccc5c(N)noc5c4)C3=O)n2)ccn1 [Example 167, (R)—N-(3-aminobenzo[d]isoxazol-6-yl)-2-hydroxy-2-((2R,6S)-4-(1-(2-methoxypyridin-4-yl)-1H-pyrazol-3-yl)-6-methyl-3-oxomorpholin-2-yl)acetamide] | 7.75
6 | C[C@H]1CN(c2ccn(-c3ccnc(C(F)(F)F)c3)n2)C(=O)[C@@H]([C@@H](O)C(=O)Nc2ccc3c(N)noc3c2)O1 [Example 169, (R)—N-(3-aminobenzo[d]isoxazol-6-yl)-2-hydroxy-2-((2R,6S)-6-methyl-3-oxo-4-(1-(2-(trifluoromethyl)pyridin-4-yl)-1H-pyrazol-3-yl)morpholin-2-yl)acetamide] | 8.05
7 | C[C@@H]1CN(c2ccn(-c3ccnc(C(F)(F)F)c3)n2)C(=O)[C@@H]([C@@H](O)C(=O)Nc2ccc3c(N)noc3c2)O1 [Example 170, (R)—N-(3-aminobenzo[d]isoxazol-6-yl)-2-hydroxy-2-((2R,6R)-6-methyl-3-oxo-4-(1-(2-(trifluoromethyl)pyridin-4-yl)-1H-pyrazol-3-yl)morpholin-2-yl)acetamide] | 8.62
8 | COc1cc(-n2ccc(N3CC(C)(C)O[C@H]([C@@H](O)C(=O)Nc4ccc5c(N)noc5c4)C3=O)n2)ccn1 [Example 171, (R)—N-(3-aminobenzo[d]isoxazol-6-yl)-2-hydroxy-2-((R)-4-(1-(2-methoxypyridin-4-yl)-1H-pyrazol-3-yl)-6,6-dimethyl-3-oxomorpholin-2-yl)acetamide] | 7.68
9 | COc1cc(-n2ccc(N3CC(C)(C)O[C@H]([C@@H](O)C(=O)Nc4ccc5c(N)noc5c4)C3=O)n2)cnn1 [Example 174, (R)—N-(3-aminobenzo[d]isoxazol-6-yl)-2-hydroxy-2-((R)-4-(1-(6-methoxypyridazin-4-yl)-1H-pyrazol-3-yl)-6,6-dimethyl-3-oxomorpholin-2-yl)acetamide] | 8.56

Continued, values first:

Row | pIC50 | Compound
10 | 8.70 | C[C@@H]1CN(c2ccn(-c3cnnc(C#N)c3)n2)C(=O)[C@@H]([C@@H](O)C(=O)Nc2ccc3c(N)noc3c2)O1 [Example 154, (R)—N-(3-Aminobenzo[d]isoxazol-6-yl)-2-((2R,6R)-4-(1-(6-cyanopyridazin-4-yl)-1H-pyrazol-3-yl)-6-methyl-3-oxomorpholin-2-yl)-2-hydroxyacetamide]
11 | 8.71 | C[C@H]1CN(c2ccn(-c3cnnc(C#N)c3)n2)C(=O)[C@@H]([C@@H](O)C(=O)Nc2ccc3c(N)noc3c2)O1 [Example 155, (R)—N-(3-Aminobenzo[d]isoxazol-6-yl)-2-((2R,6S)-4-(1-(6-cyanopyridazin-4-yl)-1H-pyrazol-3-yl)-6-methyl-3-oxomorpholin-2-yl)-2-hydroxyacetamide]
12 | 8.87 | C[C@@H]1CN(c2ccn(-c3ccnnc3)n2)C(=O)[C@@H]([C@@H](O)C(=O)Nc2ccc3c(N)noc3c2)O1 [Example 157, (R)—N-(3-aminobenzo[d]isoxazol-6-yl)-2-hydroxy-2-((2R,6R)-6-methyl-3-oxo-4-(1-(pyridazin-4-yl)-1H-pyrazol-3-yl)morpholin-2-yl)acetamide]
13 | 8.36 | C[C@@H]1CN(c2nn(-c3ccnnc3)cc2F)C(=O)[C@@H]([C@@H](O)C(=O)Nc2ccc3c(N)noc3c2)O1 [Example 158, (R)—N-(3-aminobenzo[d]isoxazol-6-yl)-2-((2R,6R)-4-(4-fluoro-1-(pyridazin-4-yl)-1H-pyrazol-3-yl)-6-methyl-3-oxomorpholin-2-yl)-2-hydroxyacetamide]
14 | 8.65 | COc1cc(-n2ccc(N3C[C@@H](C)O[C@H]([C@@H](O)C(=O)Nc4ccc5c(N)noc5c4)C3=O)n2)cnn1 [Example 159, (R)—N-(3-aminobenzo[d]isoxazol-6-yl)-2-hydroxy-2-((2R,6R)-4-(1-(6-methoxypyridazin-4-yl)-1H-pyrazol-3-yl)-6-methyl-3-oxomorpholin-2-yl)acetamide]
15 | 8.64 | C[C@H]1CN(c2ccn(-c3ccnnc3)n2)C(=O)[C@@H]([C@@H](O)C(=O)Nc2ccc3c(N)noc3c2)O1 [Example 160, (R)—N-(3-aminobenzo[d]isoxazol-6-yl)-2-hydroxy-2-((2R,6S)-6-methyl-3-oxo-4-(1-(pyridazin-4-yl)-1H-pyrazol-3-yl)morpholin-2-yl)acetamide]
16 | 7.49 | C[C@H]1CN(c2nn(-c3ccnnc3)cc2F)C(=O)[C@@H]([C@@H](O)C(=O)Nc2ccc3c(N)noc3c2)O1 [Example 161, (R)—N-(3-aminobenzo[d]isoxazol-6-yl)-2-((2R,6S)-4-(4-fluoro-1-(pyridazin-4-yl)-1H-pyrazol-3-yl)-6-methyl-3-oxomorpholin-2-yl)-2-hydroxyacetamide]
17 | 8.58 | COc1cc(-n2ccc(N3C[C@H](C)O[C@H]([C@@H](O)C(=O)Nc4ccc5c(N)noc5c4)C3=O)n2)cnn1 [Example 162, (R)—N-(3-aminobenzo[d]isoxazol-6-yl)-2-hydroxy-2-((2R,6S)-4-(1-(6-methoxypyridazin-4-yl)-1H-pyrazol-3-yl)-6-methyl-3-oxomorpholin-2-yl)acetamide]
18 | 7.95 | C[C@H]1CN(c2ccn(-c3ccncc3)n2)C(=O)[C@@H]([C@@H](O)C(=O)Nc2ccc3c(N)noc3c2)O1 [Example 163, (R)—N-(3-aminobenzo[d]isoxazol-6-yl)-2-hydroxy-2-((2R,6S)-6-methyl-3-oxo-4-(1-(pyridin-4-yl)-1H-pyrazol-3-yl)morpholin-2-yl)acetamide]
19 | 8.47 | C[C@@H]1CN(c2ccn(-c3ccncc3)n2)C(=O)[C@@H]([C@@H](O)C(=O)Nc2ccc3c(N)noc3c2)O1 [Example 166, (R)—N-(3-aminobenzo[d]isoxazol-6-yl)-2-hydroxy-2-((2R,6R)-6-methyl-3-oxo-4-(1-(pyridin-4-yl)-1H-pyrazol-3-yl)morpholin-2-yl)acetamide]
20 | 8.23 | COc1cc(-n2ccc(N3C[C@@H](C)O[C@H]([C@@H](O)C(=O)Nc4ccc5c(N)noc5c4)C3=O)n2)ccn1 [Example 168, (R)—N-(3-aminobenzo[d]isoxazol-6-yl)-2-hydroxy-2-((2R,6R)-4-(1-(2-methoxypyridin-4-yl)-1H-pyrazol-3-yl)-6-methyl-3-oxomorpholin-2-yl)acetamide]
21 | 8.74 | CC1(C)CN(c2ccn(-c3ccnnc3)n2)C(=O)[C@@H]([C@@H](O)C(=O)Nc2ccc3c(N)noc3c2)O1 [Example 172, (R)—N-(3-aminobenzo[d]isoxazol-6-yl)-2-((R)-6,6-dimethyl-3-oxo-4-(1-(pyridazin-4-yl)-1H-pyrazol-3-yl)morpholin-2-yl)-2-hydroxyacetamide]
22 | 7.68 | CC1(C)CN(c2nn(-c3ccnnc3)cc2F)C(=O)[C@@H]([C@@H](O)C(=O)Nc2ccc3c(N)noc3c2)O1 [Example 173, (R)—N-(3-aminobenzo[d]isoxazol-6-yl)-2-((R)-4-(4-fluoro-1-(pyridazin-4-yl)-1H-pyrazol-3-yl)-6,6-dimethyl-3-oxomorpholin-2-yl)-2-hydroxyacetamide]
